Data from ChEMBL document CHEMBL3044639, “Synthesis and biologic activities of some novel heterocyclic chalcone derivatives” (Med Chem Res, 2013).
The source made the active and inactive calls. The calls are words filed in the database; no cut-off is given here.

Columns and labels:
[1] = tested on: Staphylococcus aureus; experiment: Antibacterial activity against Staphylococcus aureus 1199B overexpressing NorA assessed as reduction of ciprofloxacin MIC at MEC after 18 hr by broth checkerboard method relative to control; type: functional
[2] = tested on: Rattus norvegicus; experiment: Anti-inflammatory activity in Wistar Rattus norvegicus (rat) assessed as inhibition of carrageenan-induced paw edema at 100 mg/kg, po administered 45 min prior to carrageenan-challenge measured 45 min to 4 hr post carrageenan-challenge relative to control; type: functional
[3] = tested on: Radical scavenging activity; experiment: Antioxidant activity assessed as DPPH radical scavenging activity after 20 min by microplate ELISA reader analysis; type: functional
[4] = tested on: Staphylococcus aureus; experiment: Antibacterial activity against Staphylococcus aureus 1199B overexpressing NorA assessed as growth inhibition after 18 hr by broth checkerboard method; type: functional; conditions: read-out: MEC
[5] = tested on: HL-60; experiment: Cytotoxicity against Homo sapiens (human) HL60 cells assessed as growth inhibition after 48 hr by MTT assay; type: functional, cell-based; conditions: HL-60, 48 h
[6] = tested on: MOLT-4; experiment: Cytotoxicity against Homo sapiens (human) MOLT4 cells assessed as growth inhibition after 48 hr by MTT assay; type: functional, cell-based; conditions: MOLT-4, 48 h
[7] = tested on: PC-3; experiment: Cytotoxicity against Homo sapiens (human) PC3 cells assessed as growth inhibition after 48 hr by MTT assay; type: functional, cell-based; conditions: PC-3, 48 h
[8] = tested on: HeLa; experiment: Cytotoxicity against Homo sapiens (human) HeLa cells assessed as growth inhibition after 48 hr by MTT assay; type: functional, cell-based

Row | SMILES | fold change (FC) [1] | inhibition [2] | Activity [3] | minimal effective concentration [4] [µg/mL] | IC50 [5] [µM] | IC50 [6] [µM] | IC50 [7] [µM] | IC50 [8] [µM]
1 | O=C(/C=C/c1ccc(Br)cc1)c1ccco1 | 2 | inactive | inactive | 25 | 48 | 62 | 58 | > 100
2 | COc1ccc(/C=C/C(=O)c2ccc[nH]2)c(OC)c1 | 2 | inactive | inactive | 25 |  |  |  | 
3 | O=C(/C=C/c1ccc(Cl)cc1)c1ccc[nH]1 | 0 | inactive | inactive | > 50 | 13 | 22 | 18 | 25
4 | COc1ccc(/C=C/C(=O)c2ccc[nH]2)cc1 | 2 | inactive | inactive | 25 |  |  |  | 
5 | O=C(/C=C/c1ccc([N+](=O)[O-])cc1)c1ccc[nH]1 | 0 | inactive | inactive | > 50 | 14 | 15 | 13 | 26
6 | COc1ccc(/C=C/C(=O)c2ccco2)cc1 | 0 | inactive | inactive | > 50 |  |  |  | 
7 | O=C(/C=C/c1ccc2c(c1)OCO2)c1ccco1 | 0 | inactive | inactive | > 50 |  |  |  | 
8 | O=C(/C=C/c1ccc(F)cc1)c1ccco1 | 0 | inactive | inactive | > 50 |  |  |  | 
9 | COc1cc(/C=C/C(=O)c2ccco2)cc(OC)c1OC | 0 | inactive | inactive | > 50 |  |  |  | 
10 | CN(C)c1ccc(/C=C/C(=O)c2ccc[nH]2)cc1 | 0 | inactive | inactive | > 50 |  |  |  | 
11 | O=C(/C=C/c1ccc(F)cc1)c1ccc[nH]1 | 2 | inactive | inactive | 25 |  |  |  | 
12 | O=C(/C=C/c1cccc([N+](=O)[O-])c1)c1ccc[nH]1 | 0 | inactive | inactive | > 50 | 20 | 22 | 23 | 32
13 | O=C(/C=C/c1cccc(Cl)c1Cl)c1ccc[nH]1 | 0 | inactive | inactive | > 50 |  |  |  | 
14 | O=C(/C=C/c1ccccc1Cl)c1ccc[nH]1 | 4 | inactive | inactive | 25 |  |  |  | 
15 | O=C(/C=C/c1ccccc1)c1ccc[nH]1 | 0 | inactive | inactive | > 50 | > 100 | > 100 | > 100 | > 100
16 | O=C(/C=C/c1ccc(Cl)cc1)c1ccco1 | 0 | inactive | inactive | > 50 | 19 | 23 | 29 | 38
17 | O=C(/C=C/c1ccc(Br)cc1)c1ccc[nH]1 | 0 | inactive | inactive | > 50 | 32 | 49 | 44 | > 100
18 | O=C(/C=C/c1ccccc1Cl)c1ccco1 | 0 | inactive | inactive | > 50 | 12 | 25 | 14 | 26
19 | COc1cccc(/C=C/C(=O)c2ccco2)c1OC | 4 | inactive | inactive | 25 |  |  |  | 
